From BindingDB's records for doi:10.1021/jm00395a016 (Medical Research Division of American Cyanamid, 1988)

Molecular target: Thromboxane-A synthase (Rattus norvegicus)
Experiment: Tested for inhibition of thromboxane Synthetase from spontaneously hypertensive rats

- IC50: 10 nM
SMILES: CC(Cn1ccnc1)Cn1c(=O)[nH]c2cc(Cl)ccc2c1=O (stereo unspecified)
